Data on 17 compounds can be found in patent publication US8741944B2, “Anti-infective agents against intracellular pathogens” (priority 2007, dated 2014).

“Also recorded” adds a separate entry of the source. Like-named read-outs stand apart in the source and are kept apart here.

The target in data set [1] is recombinant PDK-1 (Homo sapiens (Human), UniProt O15530). In words: PDK-1 kinase activity (PDK-1 kinase assay kit, cell-free). It is filed as biochemical. To be noted: for IC50: inhibiting recombinant PDK-1 kinase activity. As to the method:
PDK-1 kinase activity This in vitro assay was performed using a PDK-1 kinase assay kit (Upstate, Lake Placid, N.Y.) according to the vendor's instructions. This cell-free assay is based on the ability of recombinant PDK-1, in the presence of DMSO vehicle or the test agent, to activate its downstream kinase serum- and glucocorticoid-regulated kinase (SGK.) which, in turn, phosphorylates the Akt/SGK-specific peptide substrate RPRAATF with [γ-^32]-ATP. […] The reported values represent the means of two independent determinations.

Data set [2] has as its system PC-3 cells. As to the kind of experiment: Cell viability analysis, MTT assay in PC-3 cells. The data set is classed as cell-based, human. How it is done: Cell Culture PC-3 (p53−/−) human androgen-non-responsive prostate cancer cells were purchased from the American […] (Manassas, Va.). Cells were cultured in RPMI 1640 medium (Gibco, Grand Island, N.Y.) supplemented with 10% fetal bovine serum (FBS; Gibco) at 37° C. in a humidified incubator containing 5% CO2.
Controls received DMSO vehicle at a concentration equal to that in drug-treated cells. The medium was removed, replaced by 200 μl of 0.5 mg/ml of MTT in 10% FBS-containing RPMI-1640 medium, and cells were incubated in the CO2 incubator at 37° C. for 2 h. Supernatants were removed from the wells, and the reduced MTT dye was solubilized in 200 μL/well DMSO. Absorbance at 570 nm was determined on a plate reader.

In data set [3] the test system is Akt. As to the kind of experiment: Direct inhibition of immunoprecipitated Akt kinase activity. It is filed as biochemical, human.
Data set [4] has as its system phospho-Akt. In words: Western blot analysis of Akt and phospho-Akt in PC-3 cells. It is filed as cell-based, human. To be noted: 5 μM and above. As to the method: Immunoblotting. The general procedure for the Western blot analysis of Akt and phospho-Akt is described as follows. Cells were washed in PBS, resuspended in SDS sample buffer sonicated by an ultrasonic sonicator for 5 see, and boiled for 5 min. After brief centrifugation, equivalent protein concentrations from the soluble fractions were resolved in 10% SDS-polyacrylamide gels on a Minigel apparatus, and transferred to a nitrocellulose membrane using a semi-dry transfer cell. The transblotted membrane was washed three times with TBS containing 0.05% Tween 20 (TBST). After blocking with TBST containing 5% nonfat milk for 60 min., the membrane was incubated with the primary antibody at 1:1,000 dilution in TBST-5% low fat milk at 4° C. for 12 h, and was then washed three times with TBST. The membrane was probed with goat anti-rabbit IgG-HRP conjugates (1:1,000) for 1 h at room temperature, and was washed with TBST three times. The immunoblots were visualized by enhanced chemiluminescence.
Background: A western blot detects proteins with antibodies after separation by electrophoresis.

In data set [5] the test system is Akt. As to the kind of experiment: Immunoprecipitated Akt kinase assay after treatment of PC-3 cells (intracellular Akt activation). It is filed as cell-based, human. To be noted: PC-3 cells treated for 2 h; read-out: IC50 for inhibiting intracellular Akt activation. How it is done:
Immunoprecipitated Akt kinase assay Akt immunoprecipitation was carried out according to a modified, published procedure. PC-3 cells were treated with DMSO vehicle or the test agents at the indicated concentrations for 2 h and then lysed at 4° C. for 1 h in buffer A containing 50 mM Tris-HCl, pH 7.5, 1% Triton X-100, 1 mM EDTA, 1 mM EGTA, 50 mM sodium fluoride, 10 mM sodium β-glycerophosphate. 0.1% 2-mercaptoethanol, 0.1 mM phenylmethylsiilfonyl fluoride, and 1 μg/mL each of aprotinin, pepstatin, and leupeptin. Cell lysates were centrifuged at 10,000 g for 5 min, and the supernatant was treated with anti-Akt at 4° C. for 60 min., followed by protein G-agarose beads for additional 60 min. The immunoprecipitate was used to analyze Akt kinase activity by using the Akt/SGK-specific peptide substrate RPRAATF as described above. Values represented the means of two independent determinations.

The subject of data set [6] is PC-3 cells. As to the kind of experiment: Cell proliferation of PC-3 cells (Coulter counter, 10% FBS). To be noted: 1 μM, 10% FBS-supplemented RPMI 1640 medium. It is filed as cell-based, human. How it is done: Cell Proliferation PC-3 cells were seeded into six-well plates at 50,000 cells/well in 10% FBS-containing RPMI 1640 medium. Following a 24 h attachment period, cells were treated in triplicate with the indicated concentration of compounds 1-36 or DMSO vehicle in 10% FBS-containing RPMI-1640 medium. At different time intervals, cells were harvested by trypsinization, and numerated using a Coulter counter model Z1 D/T (Beckman Coulter, Fullerton, Calif.).

The subject of data set [7] is S. typhimurium. In words: Intracellular survival (gentamicin protection) assay, S. typhimurium in RAW 264.7 murine macrophages. It is filed as cell-based, Salmonella typhimurium. As to the method: The discovery that OSU-03012 induces autophagy in human cancer cells, coupled with the importance of autophagy as a defense against intracellular pathogens, prompted us to test the effect of this agent on the intracellular survival of S. typhimurium in infected RAW 264.7 murine macrophages. Both time- and dose-dependent effects of OSU-03012 were assessed in intracellular survival (i.e. gentamicin protection) assays. […] To determine if OSU-03012 had direct bactericidal activity, the effect of OSU-03012 on extracellular bacterial growth was examined in liquid medium (FIG. 3C) and on agar by the disc-diffusion method (not shown).

For data set [8] the following is noted: in vivo.
The test system of data set [9] is S. typhimurium. In words: Extracellular bacterial growth in liquid medium and on agar (disc-diffusion). The data set is classed as cell-based, Salmonella typhimurium. The following applies: concentrations of up to 5 μM. A general note: Agar diffusion results depend on both activity and mobility in agar.
Data set [10] has as its system F. novicida. It is filed as cell-based. The following applies: RAW 264.7 cells, 1 μM for 24 h.
Data set [11] relates to autophagy. As to the kind of experiment: Autophagy induction. It is filed as cell-based, human. From the text: OSU-03012 eliminates intracellular S. typhimurium by inducing autophagy in infected macrophages. […] Additional evidence for this mechanism of action comes from the human breast cancer cell lines, MCF-7 and MDA-MB-231, which differ in their expression levels of beclin-1, a tumor suppressor that is critical for the execution of autophagy (FIG. 5A). Accordingly, the ability of OSU-03012 to induce autophagy in these cell lines, as determined by the intensity of immunostaining for endogenous LC3, a marker of mammalian autophagosomes (FIG. 5C), correlates with their respective beclin-1 expression levels. Moreover, intracellular bacterial survival in OSU-03012-treated S. typhimurium-infected breast cancer cells also reflects their respective beclin-1 status (FIG. 5B). […] Moreover, OSU-03012 induces autophagy and bacterial clearance far more potently than rapamycin and at clinically attainable concentrations.

[12] abbreviates: inducing apoptotic death in PC-3 cells / PC-3 cell viability, read-out: IC50 PC-3.

recombinant PDK-1, sequence (O15530 whole entry, looked up): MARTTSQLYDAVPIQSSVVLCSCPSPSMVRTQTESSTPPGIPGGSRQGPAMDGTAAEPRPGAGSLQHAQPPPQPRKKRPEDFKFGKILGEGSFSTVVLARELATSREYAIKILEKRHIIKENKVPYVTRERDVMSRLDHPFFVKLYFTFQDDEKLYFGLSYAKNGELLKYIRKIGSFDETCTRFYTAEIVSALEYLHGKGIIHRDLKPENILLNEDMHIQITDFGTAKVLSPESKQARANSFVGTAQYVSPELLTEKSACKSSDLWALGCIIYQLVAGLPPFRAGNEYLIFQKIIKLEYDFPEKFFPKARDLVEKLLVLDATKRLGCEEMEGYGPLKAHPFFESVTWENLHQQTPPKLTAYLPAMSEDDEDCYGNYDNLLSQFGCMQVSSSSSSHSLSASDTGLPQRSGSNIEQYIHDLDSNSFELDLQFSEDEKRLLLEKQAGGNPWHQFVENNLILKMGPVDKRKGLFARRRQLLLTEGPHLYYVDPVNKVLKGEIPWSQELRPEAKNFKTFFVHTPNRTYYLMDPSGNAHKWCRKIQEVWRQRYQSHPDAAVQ

Turning to “4-[5-4-biphenylyl)-3-(trifluoromethyl)-1H-pyrazol-1-yl]benzensulfonamide [Compound 45]”, the IC50 in data set [1] stood at 21 µM; in data set [2] (setting [12]) it was 11 µM.

For the compound “4-[5-(2-phenanthrenyl)-3-(trifluoromethyl)-1H-1-yl]benzenesulfonamide [Compound 59]”, the “improvement of IC50 values over 4-[5-(4-methylphenyl)-3-(trifluoromethyl)-1H-pyrazol-1-yl]benzenesulfonamide” value in data set [1] (PDK-1 activity and PC-3 cell viability) was “five- to six-fold”. Moreover, the IC50 came out at 5 µM in data set [2] (24 h, 1% FBS-containing RPMI 1640 medium, read-out: dose required to induce 50% PC-3 cell death); 5 µM in data set [2] (setting [12]); 5 µM in data set [5]. Moreover, the “direct inhibitory effect on immunoprecipitated Akt kinase activity” value in data set [3] is “Neither compound 59 nor other the other compounds displayed a direct inhibitory effect”. Further, the “Akt dephosphorylation (Western blot)” value in data set [4] was “significant Akt dephosphorylation”. Besides, the “anti-proliferative activity on PC-3 cell proliferation” value in data set [6] was “substantial anti-proliferative activity”.

With “4-[5-(3′,5′-dimethyl[1,1;-biphenyl]-4-yl)-3-(trifluoromethyl)-1H-1-yl]benzenesulfonamide [Compound 53]”, in data set [1], the IC50 came to 17 µM.

In the case of “4-[5-(4-(phenylmethyl)phenyl)-3-(trifluoromethyl)-1H-1-yl]benzenesulfonamide [Compound 56]”, the IC50 came to 15 µM in data set [1] and 8 µM in [2] (setting [12]).

Consider “4-[5-(4′-bromomethyl[1,1′-biphenyl]-4-yl)-3-(trifluoromethyl)-1H-1-yl]benzenesulfonamide [Compound 52]”, for which the IC50 in [1] is 20 µM; in data set [2] (setting [12]), 11 µM.

Regarding “4-[5-(4′-butyl[1,1′-biphenyl]-4-yl)-3-(trifluoromethyl)-1H-1-yl]benzenesulfonamide [Compound 54]”, the IC50 in data set [1] is 32 µM; in data set [2] (setting [12]), 15 µM.

For “4-[5-(4′-methyl[1,1′-biphenyl]4-yl)-3-(trifluoromethyl)-1H-1-yl]benzenesulfonamide [Compound 50]”, the IC50 in data set [2] (setting [12]) worked out at 8 µM.

Take “4-[5-(4′-tert-buty[1,1′-biphenyl]-4-yl)-3-(trifluoromethyl)-1H-1-yl]benzenesulfonamide [Compound 55]”: the IC50 came out at 32 µM in data set [1] and 15 µM in [2] (setting [12]).

“4-[5-(4′triflouromethyl[1,1′-biphenyl]-4-yl)-3-(trifluoromethyl)-1H-1-yl]benzenesulfonamide [Compound 51]”: the IC50 in data set [1] was determined as 18 µM; in data set [2] (setting [12]) it was 8 µM.

Take “4-[5-(9-phenanthrenyl)-3-(trifluoromethyl)-1H-1-yl]benzenesulfonamide [Compound 60]”: the results for the IC50 in [1] and in [2] (setting [12]) were 42 µM and 23 µM, respectively.

For the compound “4-[5-(9H-fluoren-2-yl)-3-(trifluoromethyl)-1H-1-yl]benzenesulfonamide [Compound 57]”, the IC50 in data set [1] amounted to 16 µM.

On to “5-(2-Phenanthrenyl)-3-(trifluoromethyl)-4-(1H-tetrazol-5-ylmethylphenyl)-1H-pyrazole [Compound 69]”, for which the IC50 in data set [1] was found to be 45 µM; in [2] (setting [12]), 27 µM.

Turning to “5-(2-Phenanthrenyl)-3-(trifluoromethyl)-4-(1H-tetrazol-5-ylphenyl)-1H-pyrazole [Compound 64]”, the IC50 in [1] amounted to 52 µM; in data set [2] (setting [12]), 32 µM.

For `Cc1ccc(-c2cc(C(F)(F)F)nn2-c2ccc(S(N)(=O)=O)cc2)cc1` [Comparative Compound, 4-[5-(4-methylphenyl)-3-(trifluoromethyl)-1H-pyrazol-1-yl]benzenesulfonamide, reference compound], in data set [2] (Homo sapiens, PC-3, read-out: IC50 PC-3), the IC50 came to 30 µM.

For `Cn1cnc(N)c2ncnc1-2` [Compound 3MA, 3-methyladenine], the “effect on ability of OSU-03012 to reduce intracellular bacterial survival” value in data set [7] (infected RAW 264.7 cells, 1 μM OSU-03012 for 8 h) is on record as “completely blocked”.

Regarding `NCC(=O)Nc1ccc(-n2nc(C(F)(F)F)cc2-c2ccc3c(ccc4ccccc43)c2)cc1` [OSU-03012], the “oral bioavailability / pharmacokinetic properties” value in [8] is “orally bioavailable with favorable pharmacokinetic properties”. Besides, the IC50 in data set [1] was approximately 5 µM; in data set [7] (Salmonella enterica, RAW264.7, S. typhimurium in RAW 264.7, 8 h of treatment, read-out: IC50 of intracellular bacterial survival) it was approximately 0.2 µM. Moreover, in data set [9], the “extracellular growth of S. typhimurium” value is given as “unaffected”. For the same compound, in [10], the “intracellular survival of F. novicida” value is “drastically reduced; also recorded: reduced intracellular survival”. In data set [7] (S. typhimurium in RAW 264.7, 8 h of treatment), the “concentration of maximal inhibition of intracellular bacterial survival” value amounted to 1 µM. Further, in data set [11], the “IC50 for autophagy induction” value was “sub-μM”.

For the compound `CO[C@H]1C[C@@H]2CC[C@@H](C)[C@@](O)(O2)C(=O)C(=O)N2CCCC[C@H]2C(=O)O[C@H]([C@H](C)C[C@@H]2CC[C@@H](O)[C@H](OC)C2)CC(=O)[C@H](C)/C=C(\C)[C@@H](O)[C@@H](OC)C(=O)[C@H](C)C[C@H](C)/C=C/C=C/C=C/1C` [rapamycin], in data set [7], the “suppression of survival of S. typhimurium in murine macrophages” value was “capable of suppressing survival”. Moreover, the “fold higher concentration required to match bacterial clearance caused by OSU-03012” value in [7] (S. typhimurium in murine macrophages) was approximately 100 fold.
